This passage reports IC50 results from patent US10479780B2, “Aminopyrazole derivatives” (Chugai Seiyaku Kabushiki Kaisha, priority 2015, dated 2019).

Where two headings read alike, the source gives them in different places.

Common to all, as to type: biochemical
Assay [1] has as its target T1, human Src enzyme (Homo sapiens, UniProt P12931).
T1 construct: purchased Carna Biosciences, Inc. 08-173
Kind of assay: Src enzyme inhibitory activity (time-resolved fluorometry, biotinylated peptide phosphorylation). The settings on record: read-out: SRC_IC50. In a few lines:
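Compounds were tested for blocking tyrosine phosphorylation of a biotinylated peptide substrate by recombinant human Src. Phosphorylated product was quantified by time-resolved fluorometry using europium cryptate and XL665 conjugates, and IC50 was calculated against the compound-free control.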

Assay [2] addresses T2, human Lck enzyme (Homo sapiens, UniProt P06239).
T2 construct: purchased Carna Biosciences, Inc. 08-170
Briefly: Lck enzyme inhibitory activity (time-resolved fluorometry, biotinylated peptide phosphorylation). Particulars: read-out: LCK_IC50. An outline of the steps: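 Readout pairs a europium cryptate-labelled anti-phosphotyrosine antibody with XL665-streptavidin, measured by time-resolved fluorescence. IC50 derived from percent inhibition against untreated controls.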

In assay [3] the target is T3, human Yes1 enzyme (Homo sapiens, UniProt P07947).
T3 construct: made in house
Kind of assay: Yes1 enzyme inhibitory activity (time-resolved fluorometry, biotinylated peptide phosphorylation). Particulars: read-out: YES_IC50. In a few lines: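 Inhibition was expressed against a compound-free control to give IC50, using TR-FRET read-out (Eu-cryptate anti-pTyr antibody, streptavidin-XL665).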

Where [4] appears, read: biotinylated peptide phosphorylation.

T2 sequence (P06239 whole entry): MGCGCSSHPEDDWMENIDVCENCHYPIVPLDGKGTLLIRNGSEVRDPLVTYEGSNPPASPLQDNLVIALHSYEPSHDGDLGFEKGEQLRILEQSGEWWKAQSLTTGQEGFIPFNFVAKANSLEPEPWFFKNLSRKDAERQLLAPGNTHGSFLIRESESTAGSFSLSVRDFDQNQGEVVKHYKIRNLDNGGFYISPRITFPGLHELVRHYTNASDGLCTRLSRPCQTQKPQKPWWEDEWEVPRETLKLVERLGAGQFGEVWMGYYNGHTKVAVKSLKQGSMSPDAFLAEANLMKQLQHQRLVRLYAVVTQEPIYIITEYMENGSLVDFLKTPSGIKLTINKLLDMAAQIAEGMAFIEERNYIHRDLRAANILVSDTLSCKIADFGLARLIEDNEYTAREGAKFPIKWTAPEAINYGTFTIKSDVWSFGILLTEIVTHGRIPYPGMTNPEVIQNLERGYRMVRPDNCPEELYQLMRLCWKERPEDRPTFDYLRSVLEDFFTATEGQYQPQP
T3 sequence (P07947 whole entry): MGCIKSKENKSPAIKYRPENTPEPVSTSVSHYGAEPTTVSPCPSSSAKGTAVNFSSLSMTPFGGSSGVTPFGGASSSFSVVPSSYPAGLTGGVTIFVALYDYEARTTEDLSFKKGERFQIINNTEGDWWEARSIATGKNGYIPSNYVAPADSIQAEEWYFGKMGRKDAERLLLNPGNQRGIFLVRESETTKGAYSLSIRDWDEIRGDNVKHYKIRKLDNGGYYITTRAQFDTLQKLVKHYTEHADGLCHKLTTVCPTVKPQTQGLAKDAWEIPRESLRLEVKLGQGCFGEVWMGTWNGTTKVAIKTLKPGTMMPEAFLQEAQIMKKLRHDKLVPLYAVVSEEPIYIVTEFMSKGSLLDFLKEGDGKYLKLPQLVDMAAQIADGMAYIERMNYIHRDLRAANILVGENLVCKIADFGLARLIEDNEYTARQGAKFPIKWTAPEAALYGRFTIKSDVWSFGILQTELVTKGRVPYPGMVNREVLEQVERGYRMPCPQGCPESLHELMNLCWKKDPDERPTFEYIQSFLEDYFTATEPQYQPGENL
T1 sequence (P12931 whole entry): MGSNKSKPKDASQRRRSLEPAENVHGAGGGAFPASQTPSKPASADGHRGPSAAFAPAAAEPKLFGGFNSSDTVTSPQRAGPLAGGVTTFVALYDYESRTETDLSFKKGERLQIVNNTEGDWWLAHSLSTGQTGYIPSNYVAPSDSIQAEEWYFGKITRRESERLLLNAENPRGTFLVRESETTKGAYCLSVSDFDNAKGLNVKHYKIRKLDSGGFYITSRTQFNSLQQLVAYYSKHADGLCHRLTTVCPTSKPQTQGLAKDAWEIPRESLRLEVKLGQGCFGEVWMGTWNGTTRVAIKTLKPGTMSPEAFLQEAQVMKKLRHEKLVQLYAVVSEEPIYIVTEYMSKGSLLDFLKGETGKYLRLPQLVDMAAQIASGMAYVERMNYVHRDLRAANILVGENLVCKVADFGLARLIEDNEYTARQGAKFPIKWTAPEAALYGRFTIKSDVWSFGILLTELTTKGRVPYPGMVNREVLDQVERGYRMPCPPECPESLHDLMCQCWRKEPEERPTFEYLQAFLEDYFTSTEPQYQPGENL

Turning to `Cc1cc(Oc2ccccc2Cl)nc(C)c1-n1ncc(C(=O)c2cc3cc(F)c(NS(C)(=O)=O)cc3[nH]2)c1N` [Example 5-1-051, N-[2-[5-amino-1-[6-(2-chlorophenoxy)-2,4-dimethylpyridin-3-yl]pyrazole-4-carbonyl]-5-fluoro-1H-indol-6-yl]methanesulfonamide], the IC50 was determined as 320 nM in assay [1], 82 nM in assay [2] and 60 nM in assay [3].
As for `COc1cc2cc(C(=O)c3cnn(-c4cnc(Oc5ccccc5F)cc4C)c3N)[nH]c2cc1NS(=O)(=O)CC(=O)N1CCOCC1` [Example 4-10-016, N-[2-[5-amino-1-[6-(2-fluorophenoxy)-4-methylpyridin-3-yl]pyrazole-4-carbonyl]-5-methoxy-1H-indol-6-yl]-2-morpholin-4-yl-2-oxoethanesulfonamide], the results for the IC50 in assay [1] (setting [4]), in assay [2] (setting [4]) and in assay [3] (setting [4]) were 17 nM, 5.8 nM and 0.59 nM, respectively.
On the same counts, the results for `Cc1cc2cc(C(=O)c3cnn(-c4cnc(Oc5ccccc5Cl)cc4C)c3N)[nH]c2cc1N1CCCS1(=O)=O` [Example 4-2-117, [5-amino-1-[6-(2-chlorophenoxy)-4-methylpyridin-3-yl]pyrazol-4-yl]-[6-(1,1-dioxo-1,2-thiazolidin-2-yl)-5-methyl-1H-indol-2-yl]methanone] are 21 nM, 4.8 nM and 0.6 nM.
On the same counts, the results for `COc1cc2cc(C(=O)c3cnn(-c4cnc(Oc5ccccc5F)cc4C)c3N)[nH]c2cc1NS(=O)(=O)CC(=O)N1CCCC1` [Example 4-10-014, N-[2-[5-amino-1-[6-(2-fluorophenoxy)-4-methylpyridin-3-yl]pyrazole-4-carbonyl]-5-methoxy-1H-indol-6-yl]-2-oxo-2-pyrrolidin-1-ylethanesulfonamide] are 29 nM, 10 nM and 0.54 nM.
Regarding `Cc1cc(Oc2ccccc2F)ccc1-n1ncc(C(=O)c2cc3cc(F)c(N4C(=O)NC(C)(C)C4=O)cc3[nH]2)c1N` [Example 5-1-127, 3-[2-[5-amino-1-[4-(2-fluorophenoxy)-2-methylphenyl]pyrazole-4-carbonyl]-5-fluoro-1H-indol-6-yl]-5,5-dimethylimidazolidine-2,4-dione], the IC50 in assay [1] was 39 nM; in assay [2], 4 nM; in assay [3], 0.67 nM.
In the case of `Cc1cc(Oc2c(F)cccc2F)ncc1-n1ncc(C(=O)c2cc3cc(F)c(N(C4CCOCC4)S(C)(=O)=O)cc3[nH]2)c1N` [Example 4-2-127, N-[2-[5-amino-1-[6-(2,6-difluorophenoxy)-4-methylpyridin-3-yl]pyrazole-4-carbonyl]-5-fluoro-1H-indol-6-yl]-N-(oxan-4-yl)methanesulfonamide], the values for the IC50 in assay [1] (setting [4]), in assay [2] (setting [4]) and in assay [3] (setting [4]) were 23 nM, 3.7 nM and 1.3 nM, respectively.
On the same counts, the results for `Cc1cc2cc(C(=O)c3cnn(-c4ccc(Oc5ccccc5F)cc4C)c3N)[nH]c2cc1N1C(=O)NC2(COC2)C1=O` [Example 5-1-410, 7-[2-[5-amino-1-[4-(2-fluorophenoxy)-2-methylphenyl]pyrazole-4-carbonyl]-5-methyl-1H-indol-6-yl]-2-oxa-5,7-diazaspiro[3.4] octane-6,8-dione] are 22 nM, 2.9 nM and 0.56 nM.
With `COc1ccc(Cl)c(S(=O)(=O)Nc2cc3[nH]c(C(=O)c4cnn(-c5ccc(Oc6ccccc6F)cc5C)c4N)cc3cc2OCC(F)F)c1` [Example 5-1-331, N-[2-[5-amino-1-[4-(2-fluorophenoxy)-2-methylphenyl]pyrazole-4-carbonyl]-5-(2,2-difluoroethoxy)-1H-indol-6-yl]-2-chloro-5-methoxybenzenesulfonamide], the IC50 in assay [1] was 330 nM; in assay [2] it was 180 nM; in assay [3], 7 nM.
`Cc1cc2cc(C(=O)c3cnn(-c4cnc(Oc5c(F)cccc5F)cc4C)c3N)[nH]c2cc1NS(=O)(=O)CC(=O)N1CCCC1` [Example 5-1-088, N-[2-[5-amino-1-[6-(2,6-difluorophenoxy)-4-methylpyridin-3-yl]pyrazole-4-carbonyl]-5-methyl-1H-indol-6-yl]-2-oxo-2-pyrrolidin-1-ylethanesulfonamide]: the IC50 in assay [1] was determined as 27 nM; in assay [2], 2.8 nM; in assay [3], 2.2 nM.
As for `Cc1cc(Oc2ccccc2F)ccc1-n1ncc(C(=O)c2cc3cc(OCCN4[C@@H]5CC[C@H]4COC5)c(NS(C)(=O)=O)cc3[nH]2)c1N` [Example 4-24-039, N-[2-[5-amino-1-[4-(2-fluorophenoxy)-2-methylphenyl]pyrazole-4-carbonyl]-5-[2-[(1S,5R)-3-oxa-8-azabicyclo[3.2.1]octan-8-yl]ethoxy]-1H-indol-6-yl]methanesulfonamide], the figures for the IC50 in assay [1] (setting [4]), in assay [2] (setting [4]) and in assay [3] (setting [4]) were 8.3 nM, 2.8 nM and 0.46 nM, respectively.
As for `Cc1cc(-n2ncc(C(=O)c3cc4cc(N5CCOCC5)c(N5CCC(N6CCOCC6)CC5)cc4[nH]3)c2N)ccc1Oc1ccccc1F` [Example 5-1-165, [5-amino-1-[4-(2-fluorophenoxy)-3-methylphenyl]pyrazol-4-yl]-[5-morpholin-4-yl-6-(4-morpholin-4-ylpiperidin-1-yl)-1H-indol-2-yl] methanone], the IC50 was determined as 340 nM in assay [1], 37 nM in assay [2] and 1.8 nM in assay [3].
Regarding `Cc1cc(Oc2c(F)cccc2F)ncc1-n1ncc(C(=O)c2cc3cc(OCC(F)F)c(NS(=O)(=O)c4cccc(Cl)n4)cc3[nH]2)c1N` [Example 5-1-572, N-[2-[5-amino-1-[6-(2,6-difluorophenoxy)-4-methylpyridin-3-yl]pyrazole-4-carbonyl]-5-(2,2-difluoroethoxy)-1H-indol-6-yl]-6-chloropyridine-2-sulfonamide], the IC50 in assay [1] (setting [4]) was found to be 690 nM; in assay [2] (setting [4]) it was 21 nM; in assay [3] (setting [4]), 3.5 nM.
Regarding `Cc1cc(Oc2ccccc2F)ccc1-n1ncc(C(=O)c2cc3cc(OCC(F)F)c(N4C(=O)N[C@@H](Cc5ccc(O)cc5)C4=O)cc3[nH]2)c1N` [Example 5-1-251, (5S)-3-[2-[5-amino-1-[4-(2-fluorophenoxy)-2-methylphenyl]pyrazole-4-carbonyl]-5-(2,2-difluoroethoxy)-1H-indol-6-yl]-5-[(4-hydroxyphenyl)methyl]imidazolidine-2,4-dione], the IC50 worked out at 25 nM in assay [1], 15 nM in assay [2] and 3.8 nM in assay [3].
In the case of `Cc1cc2cc(C(=O)c3cnn(-c4ccc(Oc5ccccc5F)cc4C)c3N)[nH]c2cc1C1CCN(S(=O)(=O)C2CC2)CC1` [Example 5-1-131, [5-amino-1-[4-(2-fluorophenoxy)-2-methylphenyl]pyrazol-4-yl]-[6-(1-cyclopropylsulfonylpiperidin-4-yl)-5-methyl-1H-indol-2-yl]methanone], the IC50 was found to be 7.4 nM in assay [1], 5.6 nM in assay [2] and 1.1 nM in assay [3].
For the molecule `Cc1cc2cc(C(=O)c3cnn(-c4c(C)cc(Oc5cc(F)ccc5F)cc4F)c3N)[nH]c2cc1NS(C)(=O)=O` [Example 4-2-057, N-[2-[5-amino-1-[4-(2,5-difluorophenoxy)-2-fluoro-6-methylphenyl]pyrazole-4-carbonyl]-5-methyl-1H-indol-6-yl]methanesulfonamide], the IC50 worked out at 140 nM in assay [1] (setting [4]), 27 nM in assay [2] (setting [4]) and 4.3 nM in assay [3] (setting [4]).
Consider `Cc1cc(-n2ncc(C(=O)c3cc4cc(OC5CCN(C(C)C)CC5)c(F)cc4[nH]3)c2N)ccc1Oc1ccccc1F` [Example 5-1-195, [5-amino-1-[4-(2-fluorophenoxy)-3-methylphenyl]pyrazol-4-yl]-[6-fluoro-5-(1-propan-2-ylpiperidin-4-yl)oxy-1H-indol-2-yl] methanone], for which the IC50 in assay [1] was found to be 190 nM; in assay [2], 45 nM; in assay [3] it was 1.3 nM.
Regarding `Cc1cc(Oc2c(F)cccc2F)ncc1-n1ncc(C(=O)c2cc3cc(OC4CCN(C5COC5)CC4)c(Br)cc3[nH]2)c1N` [Example 5-1-222, [5-amino-1-[6-(2,6-difluorophenoxy)-4-methylpyridin-3-yl]pyrazol-4-yl]-[6-bromo-5-[1-(oxetan-3-yl)plperidin-4-yl]oxy-1H-indol-2-yl] methanone], the figures for the IC50 in assay [1], in assay [2] and in assay [3] were 4.7 nM, 7.5 nM and 1.3 nM, respectively.
With `Cc1cc2cc(C(=O)c3cnn(-c4ccc(Oc5ccccc5F)cc4C)c3N)[nH]c2cc1NS(=O)(=O)c1cccc(Cl)n1` [Example 5-1-525, N-[2-[5-amino-1-[4-(2-fluorophenoxy)-2-methylphenyl]pyrazole-4-carbonyl]-5-methyl-1H-indol-6-yl]-6-chloropyridine-2-sulfonamide], the IC50 in assay [1] (setting [4]) was 400 nM; in assay [2] (setting [4]), 72 nM; in assay [3] (setting [4]) it was 3.1 nM.
The like results for `COc1cc2cc(C(=O)c3cnn(-c4ccc(Oc5ccccc5F)cc4C)c3N)[nH]c2cc1NS(=O)(=O)CCCF` [Example 4-13-002, N-[2-[5-amino-1-[4-(2-fluorophenoxy)-2-methylphenyl]pyrazole-4-carbonyl]-5-methoxy-1H-indol-6-yl]-3-fluoropropane-1-sulfonamide] were, in that order, 27 nM, 20 nM and 2.4 nM.
As to `COc1cc2cc(C(=O)c3cnn(-c4c(C)cc(Oc5ccccc5)cc4F)c3N)[nH]c2cc1NS(C)(=O)=O` [Example 4-1-007, N-[2-[5-amino-1-(2-fluoro-6-methyl-4-phenoxyphenyl)pyrazole-4-carbonyl]-5-methoxy-1H-indol-6-yl]methanesulfonamide], the IC50 in assay [1] (setting [4]) came to 61 nM; in assay [2] (setting [4]), 7.5 nM; in assay [3] (setting [4]), 1.1 nM.
